Laboratory results published in ChEMBL document CHEMBL1143427, “Interactions of ceftobiprole with beta-lactamases from molecular classes A to D” (Antimicrob Agents Chemother, 2007).

What was measured:
[1] = target: Beta-lactamase (Pseudomonas aeruginosa (strain ATCC 15692 / PAO1 / 1C / PRS 101 / LMG12228)) (UniProt P24735); assay: Ratio of Kcat to Km of Pseudomonas aeruginosa 4352 AmpC assessed as drug hydrolysis by spectrophotometry relative to cephaloridine; set-up: scale not given: the % may be the effect or the level left
Sequence of Beta-lactamase (Pseudomonas aeruginosa (strain ATCC 15692 / PAO1 / 1C / PRS 101 / LMG12228)) (P24735 27-397 limits assumed): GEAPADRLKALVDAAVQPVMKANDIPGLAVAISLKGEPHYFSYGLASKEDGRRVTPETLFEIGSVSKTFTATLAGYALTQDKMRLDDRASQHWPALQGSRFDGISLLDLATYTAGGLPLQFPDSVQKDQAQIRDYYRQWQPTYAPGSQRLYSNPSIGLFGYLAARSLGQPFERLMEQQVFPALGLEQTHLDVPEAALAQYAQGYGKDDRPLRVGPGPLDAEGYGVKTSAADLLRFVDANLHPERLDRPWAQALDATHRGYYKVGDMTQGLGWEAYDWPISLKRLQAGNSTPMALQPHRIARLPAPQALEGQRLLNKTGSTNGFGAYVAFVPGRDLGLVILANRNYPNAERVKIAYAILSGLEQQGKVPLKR

[2] = target: T1, Beta-lactamase (Providencia stuartii) (UniProt O69773); assay: Ratio of Kcat to Km of Providencia stuartii AmpC assessed as drug hydrolysis by spectrophotometry relative to cephaloridine; set-up: scale not given: the % may be the effect or the level left
T1 sequence (whole entry): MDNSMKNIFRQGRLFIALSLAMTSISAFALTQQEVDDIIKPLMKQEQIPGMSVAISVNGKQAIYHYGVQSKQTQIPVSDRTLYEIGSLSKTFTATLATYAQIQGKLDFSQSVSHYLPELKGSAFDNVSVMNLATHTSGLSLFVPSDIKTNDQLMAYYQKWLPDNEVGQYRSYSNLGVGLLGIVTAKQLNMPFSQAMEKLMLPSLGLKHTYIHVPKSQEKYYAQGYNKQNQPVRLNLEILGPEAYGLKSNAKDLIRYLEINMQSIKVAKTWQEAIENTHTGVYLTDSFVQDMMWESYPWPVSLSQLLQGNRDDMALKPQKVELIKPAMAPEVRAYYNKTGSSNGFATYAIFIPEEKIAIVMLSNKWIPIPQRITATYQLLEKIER

[3] = target: Beta-lactamase VIM-2 (Pseudomonas aeruginosa) (UniProt Q9K2N0); assay: Activity of Pseudomonas aeruginosa VIM2 assessed as drug hydrolysis by spectrophotometry relative to cephaloridine; set-up: scale not given: the % may be the effect or the level left
[4] = target: Beta-lactamase (Staphylococcus aureus) (UniProt P00807); assay: Ratio of Kcat to Km of Staphylococcus aureus betalactamase PC1 assessed as drug hydrolysis by spectrophotometry relative to cephaloridine; set-up: scale not given: the % may be the effect or the level left
Sequence of Beta-lactamase (Staphylococcus aureus) (P00807 whole entry): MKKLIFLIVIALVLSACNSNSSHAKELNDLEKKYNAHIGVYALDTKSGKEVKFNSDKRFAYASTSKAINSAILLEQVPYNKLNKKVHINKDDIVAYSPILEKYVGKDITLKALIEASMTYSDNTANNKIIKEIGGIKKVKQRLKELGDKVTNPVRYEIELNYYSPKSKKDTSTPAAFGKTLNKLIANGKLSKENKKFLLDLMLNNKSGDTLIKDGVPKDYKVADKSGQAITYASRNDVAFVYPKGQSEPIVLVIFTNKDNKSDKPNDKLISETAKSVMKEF

[5] = target: T1, Beta-lactamase (Providencia stuartii); assay: Activity of Providencia stuartii AmpC assessed as drug hydrolysis by spectrophotometry relative to cephaloridine; set-up: scale not given: the % may be the effect or the level left
[6] = target: T2, Beta-lactamase SHV-1 (Klebsiella pneumoniae) (UniProt P0AD64); assay: Activity of Klebsiella pneumoniae SHV1 assessed as drug hydrolysis by spectrophotometry relative to cephaloridine; set-up: scale not given: the % may be the effect or the level left
T2 sequence (whole entry): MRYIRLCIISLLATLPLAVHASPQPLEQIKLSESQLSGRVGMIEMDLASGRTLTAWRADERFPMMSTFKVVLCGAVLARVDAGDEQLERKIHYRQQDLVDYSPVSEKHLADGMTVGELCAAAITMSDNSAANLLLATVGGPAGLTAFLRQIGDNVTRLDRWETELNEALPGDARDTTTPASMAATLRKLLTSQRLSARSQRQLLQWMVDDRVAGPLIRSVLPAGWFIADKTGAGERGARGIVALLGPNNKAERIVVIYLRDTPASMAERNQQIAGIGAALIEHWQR

[7] = target: T3, Carbapenem-hydrolyzing beta-lactamase SME-3 (Serratia marcescens) (UniProt Q6PRG8); assay: Ratio of Kcat to Km of Serratia marcescens SME3 assessed as drug hydrolysis by spectrophotometry relative to cephaloridine; set-up: scale not given: the % may be the effect or the level left
T3 sequence (whole entry): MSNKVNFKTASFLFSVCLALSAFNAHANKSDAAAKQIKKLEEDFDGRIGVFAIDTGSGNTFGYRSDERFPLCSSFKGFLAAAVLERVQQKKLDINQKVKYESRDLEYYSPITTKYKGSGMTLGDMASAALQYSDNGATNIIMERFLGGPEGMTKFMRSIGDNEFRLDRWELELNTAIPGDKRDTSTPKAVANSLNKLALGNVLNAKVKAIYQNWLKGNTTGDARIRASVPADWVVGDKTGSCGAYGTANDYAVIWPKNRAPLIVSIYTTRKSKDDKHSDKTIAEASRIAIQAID

[8] = target: Metallo beta-lactamase (Pseudomonas aeruginosa) (UniProt Q6TUJ4); assay: Ratio of Kcat to Km of Pseudomonas aeruginosa IMP1 assessed as drug hydrolysis by spectrophotometry relative to cephaloridine; set-up: scale not given: the % may be the effect or the level left
Sequence of Metallo beta-lactamase (Pseudomonas aeruginosa) (Q6TUJ4 as listed by the source): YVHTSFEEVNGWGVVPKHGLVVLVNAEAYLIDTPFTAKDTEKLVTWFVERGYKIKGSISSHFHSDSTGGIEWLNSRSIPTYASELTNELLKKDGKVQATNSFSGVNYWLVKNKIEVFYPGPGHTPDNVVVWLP

[9] = target: T4, Beta-lactamase (Klebsiella oxytoca) (UniProt Q8RT60); assay: Activity of Klebsiella oxytoca beta-lactamase K1 assessed as drug hydrolysis by spectrophotometry relative to cephaloridine; set-up: scale not given: the % may be the effect or the level left
T4 sequence (whole entry): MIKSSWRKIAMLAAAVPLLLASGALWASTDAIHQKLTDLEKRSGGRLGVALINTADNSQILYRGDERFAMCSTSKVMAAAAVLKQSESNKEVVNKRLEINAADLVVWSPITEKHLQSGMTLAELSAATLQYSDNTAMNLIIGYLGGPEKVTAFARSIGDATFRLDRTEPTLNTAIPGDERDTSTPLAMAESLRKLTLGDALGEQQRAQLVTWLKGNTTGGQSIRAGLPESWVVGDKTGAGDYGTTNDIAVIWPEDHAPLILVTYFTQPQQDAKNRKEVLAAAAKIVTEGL

[10] = target: Beta-lactamase (Pseudomonas aeruginosa (strain ATCC 15692 / PAO1 / 1C / PRS 101 / LMG12228)) (UniProt P24735); assay: Ratio of Kcat to Km of Pseudomonas aeruginosa 18SH AmpC assessed as drug hydrolysis by spectrophotometry relative to cephaloridine; set-up: scale not given: the % may be the effect or the level left
[11] = target: Beta-lactamase (Staphylococcus aureus) (UniProt P00807); assay: Activity of Staphylococcus aureus betalactamase PC1 assessed as drug hydrolysis by spectrophotometry relative to cephaloridine; set-up: scale not given: the % may be the effect or the level left
[12] = target: Beta-lactamase (Pseudomonas aeruginosa (strain ATCC 15692 / PAO1 / 1C / PRS 101 / LMG12228)) (UniProt P24735); assay: Ratio of Kcat to Km of Pseudomonas aeruginosa MK-1184 AmpC assessed as drug hydrolysis by spectrophotometry relative to cephaloridine; set-up: scale not given: the % may be the effect or the level left
[13] = target: Beta-lactamase TEM (Escherichia coli) (UniProt P62593); assay: Activity of Escherichia coli TEM1 assessed as drug hydrolysis by spectrophotometry relative to cephaloridine; set-up: scale not given: the % may be the effect or the level left
Sequence of Beta-lactamase TEM (Escherichia coli) (P62593 whole entry): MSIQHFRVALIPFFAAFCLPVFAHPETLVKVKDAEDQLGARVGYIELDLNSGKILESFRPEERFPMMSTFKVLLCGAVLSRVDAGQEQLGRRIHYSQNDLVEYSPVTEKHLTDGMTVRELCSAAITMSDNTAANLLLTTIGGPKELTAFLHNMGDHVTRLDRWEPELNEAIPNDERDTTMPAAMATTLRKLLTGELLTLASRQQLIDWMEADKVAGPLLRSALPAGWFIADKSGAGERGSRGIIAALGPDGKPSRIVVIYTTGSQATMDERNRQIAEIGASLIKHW

[14] = target: Beta-lactamase VIM-2 (Pseudomonas aeruginosa) (UniProt Q9K2N0); assay: Ratio of Kcat to Km of Pseudomonas aeruginosa VIM2 assessed as drug hydrolysis by spectrophotometry relative to cephaloridine; set-up: scale not given: the % may be the effect or the level left
[15] = target: T4, Beta-lactamase (Klebsiella oxytoca); assay: Ratio of Kcat to Km of Klebsiella oxytoca beta-lactamase K1 assessed as drug hydrolysis by spectrophotometry relative to cephaloridine; set-up: scale not given: the % may be the effect or the level left
[16] = target: Beta-lactamase CTX-M (Escherichia coli) (UniProt Q9EXV5); assay: Ratio of Kcat to Km of Escherichia coli CTX-M-15 assessed as drug hydrolysis by spectrophotometry relative to cephaloridine; set-up: scale not given: the % may be the effect or the level left
[17] = target: Beta-lactamase (Pseudomonas aeruginosa (strain ATCC 15692 / PAO1 / 1C / PRS 101 / LMG12228)) (UniProt P24735); assay: Activity of Pseudomonas aeruginosa AmpC assessed as drug hydrolysis by spectrophotometry relative to cephaloridine; set-up: scale not given: the % may be the effect or the level left
[18] = target: Beta-lactamase (Pseudomonas aeruginosa (strain ATCC 15692 / PAO1 / 1C / PRS 101 / LMG12228)) (UniProt P24735); assay: Activity of Pseudomonas aeruginosa MK-1184 AmpC assessed as drug hydrolysis by spectrophotometry relative to cephaloridine; set-up: scale not given: the % may be the effect or the level left
[19] = target: T3, Carbapenem-hydrolyzing beta-lactamase SME-3 (Serratia marcescens); assay: Activity of Serratia marcescens SME3 assessed as drug hydrolysis by spectrophotometry relative to cephaloridine; set-up: scale not given: the % may be the effect or the level left
[20] = target: Beta-lactamase (Morganella morganii) (UniProt P94958); assay: Activity of Morganella morganii AmpC assessed as drug hydrolysis by spectrophotometry relative to cephaloridine; set-up: scale not given: the % may be the effect or the level left
[21] = target: Beta-lactamase CTX-M (Escherichia coli) (UniProt Q9EXV5); assay: Activity of Escherichia coli CTX-M-15 assessed as drug hydrolysis by spectrophotometry relative to cephaloridine; set-up: scale not given: the % may be the effect or the level left
[22] = target: Beta-lactamase (Pseudomonas aeruginosa (strain ATCC 15692 / PAO1 / 1C / PRS 101 / LMG12228)) (UniProt P24735); assay: Activity of Pseudomonas aeruginosa 4352 AmpC assessed as drug hydrolysis by spectrophotometry relative to cephaloridine; set-up: scale not given: the % may be the effect or the level left
[23] = target: T2, Beta-lactamase SHV-1 (Klebsiella pneumoniae); assay: Ratio of Kcat to Km of Klebsiella pneumoniae SHV1 assessed as drug hydrolysis by spectrophotometry relative to cephaloridine; set-up: scale not given: the % may be the effect or the level left
[24] = system: Klebsiella pneumoniae; assay: Activity of Klebsiella pneumoniae TEM26 assessed as drug hydrolysis by spectrophotometry relative to cephaloridine; set-up: scale not given: the % may be the effect or the level left
[25] = system: Klebsiella pneumoniae; assay: Ratio of Kcat to Km of Klebsiella pneumoniae TEM26 assessed as drug hydrolysis by spectrophotometry relative to cephaloridine; set-up: scale not given: the % may be the effect or the level left
[26] = target: Beta-lactamase (Pseudomonas aeruginosa (strain ATCC 15692 / PAO1 / 1C / PRS 101 / LMG12228)) (UniProt P24735); assay: Activity of Pseudomonas aeruginosa 18SH AmpC assessed as drug hydrolysis by spectrophotometry relative to cephaloridine; set-up: scale not given: the % may be the effect or the level left
[27] = target: Beta-lactamase (Morganella morganii) (UniProt P94958); assay: Ratio of Kcat to Km of Morganella morganii AmpC assessed as drug hydrolysis by spectrophotometry relative to cephaloridine; set-up: scale not given: the % may be the effect or the level left
[28] = target: Beta-lactamase TEM (Escherichia coli) (UniProt P62593); assay: Ratio of Kcat to Km of Escherichia coli TEM1 assessed as drug hydrolysis by spectrophotometry relative to cephaloridine; set-up: scale not given: the % may be the effect or the level left
[29] = target: Beta-lactamase (Serratia marcescens) (UniProt P18539); assay: Activity of Serratia marcescens AmpC assessed as drug hydrolysis by spectrophotometry relative to cephaloridine; set-up: scale not given: the % may be the effect or the level left
Sequence of Beta-lactamase (Serratia marcescens) (P18539 whole entry): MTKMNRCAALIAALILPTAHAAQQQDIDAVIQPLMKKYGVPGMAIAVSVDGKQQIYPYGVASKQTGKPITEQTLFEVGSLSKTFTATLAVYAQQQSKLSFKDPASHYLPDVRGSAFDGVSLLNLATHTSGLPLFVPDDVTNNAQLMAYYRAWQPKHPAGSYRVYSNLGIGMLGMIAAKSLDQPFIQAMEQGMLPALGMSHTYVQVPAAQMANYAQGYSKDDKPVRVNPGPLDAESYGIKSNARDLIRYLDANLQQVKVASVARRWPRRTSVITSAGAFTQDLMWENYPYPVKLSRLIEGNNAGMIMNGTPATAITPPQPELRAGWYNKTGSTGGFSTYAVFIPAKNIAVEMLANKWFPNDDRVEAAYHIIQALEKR

[30] = system: Klebsiella pneumoniae; assay: Ratio of Kcat to Km of Klebsiella pneumoniae TEM26 assessed as drug hydrolysis by spectrophotometry
[31] = target: Beta-lactamase (Serratia marcescens) (UniProt P18539); assay: Ratio of Kcat to Km of Serratia marcescens AmpC assessed as drug hydrolysis by spectrophotometry relative to cephaloridine; set-up: scale not given: the % may be the effect or the level left
[32] = system: Klebsiella pneumoniae; assay: Activity of Klebsiella pneumoniae TEM26 assessed as drug hydrolysis by spectrophotometry
[33] = target: Beta-lactamase (Pseudomonas aeruginosa (strain ATCC 15692 / PAO1 / 1C / PRS 101 / LMG12228)) (UniProt P24735); assay: Ratio of Kcat to Km of Pseudomonas aeruginosa AmpC assessed as drug hydrolysis by spectrophotometry relative to cephaloridine; set-up: scale not given: the % may be the effect or the level left

CC(C)(O/N=C(\C(=O)N[C@@H]1C(=O)N2C(C(=O)[O-])=C(C[n+]3ccccc3)CS[C@H]12)c1csc(N)n1)C(=O)O
Activity [1]: 0.42%
Activity [2]: 1.3%
Activity [3]: 0.19%
Activity [4]: 0.92%
Activity [5]: 0.036%
Activity [6]: 0.0026%
Activity [7]: 0.031%
Activity [8]: 120%
Activity [9]: 0.0026%
Activity [10]: 0.83%
Activity [11]: 0.25%
Activity [12]: 5.3%
Activity [13]: 0.00023%
Activity [14]: 1.7%
Activity [15]: 0.0018%
Activity [16]: 0.37%
Activity [17]: < 0.059%
Activity [18]: 3.1%
Activity [19]: 0.013%
Activity [20]: < 0.14%
Activity [21]: 2.3%
Activity [22]: < 0.01%
Activity [23]: 0.00084%
Activity [24]: 260%
Activity [25]: 130%
Activity [26]: < 0.1%
Activity [27]: < 2.5%
Activity [28]: 0.00067%
Activity [29]: < 0.0025%
kcat/Km [30]: 730000 M⁻¹ s⁻¹
Activity [31]: < 0.0028%
Km [32]: 130 µM
kcat [32]: 95 s⁻¹

CO/N=C(\C(=O)N[C@@H]1C(=O)N2C(C(=O)O)=C(COC(C)=O)CS[C@H]12)c1csc(N)n1
Activity [9]: 13%
Activity [15]: 2.3%
Activity [16]: 140%
Activity [21]: 95%
Activity [24]: 7.8%
Activity [25]: 34%
kcat/Km [30]: 190000 M⁻¹ s⁻¹
Km [32]: 15 µM
kcat [32]: 2.9 s⁻¹

CC1(C)S[C@@H]2[C@H](NC(=O)Cc3ccccc3)C(=O)N2[C@H]1C(=O)O
Activity [1]: 1100%
Activity [2]: 43%
Activity [3]: 61%
Activity [4]: 1.5e+06%
Activity [5]: 0.62%
Activity [6]: 260%
Activity [7]: 130%
Activity [8]: 750%
Activity [9]: 160%
Activity [10]: 61%
Activity [11]: 46000%
Activity [12]: 670%
Activity [13]: 122%
Activity [14]: 570%
Activity [15]: 400%
Activity [16]: 110%
Activity [17]: 540%
Activity [18]: 91%
Activity [19]: 0.73%
Activity [20]: 26%
Activity [21]: 25%
Activity [22]: 37%
Activity [23]: 2600%
Activity [24]: 210%
Activity [25]: 2700%
Activity [26]: 35%
Activity [27]: 860%
Activity [28]: 5600%
Activity [33]: 14000%
Activity [29]: 0.95%
kcat/Km [30]: 1.5e+07 M⁻¹ s⁻¹
Activity [31]: 290%
Km [32]: 5 µM
kcat [32]: 76 s⁻¹
